Reference: patent publication US20130109581A1, “POSITIVELY CHARGED SPECIES AS BINDING REAGENTS IN THE SEPARATION OF PROTEIN AGGREGATES FROM MONOMERS” (priority 2009, published 2013)
Several values for one entry are separate records, joined by “and”; a condition that tells them apart may be missing. Equal entries are not always repeated. Entries after “also recorded” stand apart in the source; their conditions may differ.

What was measured:
tau aggregates = type: binding, human
Aβ42 ASPD = biological target: T1, Aβ42 ASPD (Homo sapiens, UniProt P05067); test: Misfolded Protein Assay, LoD and capture in CSF: ASPD; type: binding; settings: for LoD: spiked into CSF
T1 construct: The Ab42 aggregates were prepared as previously described
T1 sequence (P05067 672-713 limits assumed): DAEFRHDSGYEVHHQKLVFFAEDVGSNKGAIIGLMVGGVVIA
Experimental: (§1) The Ab42 aggregates were prepared as previously described: fibrils were prepared per Stine et al (JBC 2003, 278, p11612), globulomers were prepared per Barghorn et al (J Neurology 2005 95 p834), ADDLs were prepared per Lambert et al (PNAS 1998, 95 p6448), and ASPDs were prepared per Noguchi et al (JBC 2009 284 p32895). Normal CSF was pooled from clinically characterized non-demented patient CSF samples. AD CSF was pooled from clinically-characterized AD patient samples. Alzheimer's Disease Brain Homogenate (ADBH) was prepared by sonication of clinically diagnosed AD patient brain samples in 0.2M.sucrose (1:10 w/v).
(§2) For the capture assay (Misfolded Protein Assay), aliquots of the beads (30 ul) were added to wells of a 96 well plate, followed by 125 ul of sample in 80:20 CSF:TBSTT. The plate was sealed and incubated for 1 h at 37 C with shaking. The plate was washed with TBST and the residual buffer removed. A denaturing solution (0.1 N NaOH) was added to each well and the plate heated to 80 C. for 30 min with shaking. After cooling the plate to RT, a neutralizing buffer (0.12 M NaH2PO3-0.4% TW20,) was added and the plate shaken briefly at RT. The assay was analyzed using the triplex Mesoscale Discovery ELISA kit for Aβ. The Aβ in the samples eluted from the beads were detected per the manufacturer's protocol.
(§3) For the Limit of Detection (LoD) studies, serial dilutions of each aggregate were spiked into CSF and were assayed per the protocol described above. The LoD was defined as 2× over background levels.
(§4) This pattern minors the capture selectivity observed when these species are tested with 3 ul of PSR1 beads and 1 ng/mL of aggregate.

Aβ42 Globulomer = biological target: T2, Aβ42 Globulomer (Homo sapiens, UniProt P05067); test: Misfolded Protein Assay, LoD and capture in CSF: globulomer; type: binding; settings: for LoD: spiked into CSF
T2 construct: beta amyloid (1-42) was monomerized with incubation in hexafluoroisopropanol
T2 sequence (P05067 672-713 limits assumed): as above
Experimental: as §1, §2, §3, §4

[1] = biological target: T3, oligomeric beta amyloid 1-42 (globulomer) (Homo sapiens, UniProt P05067); test: Misfolded Protein Assay: capture of globulomer spiked into CSF (Example 2); type: binding
T3 construct: beta amyloid (1-42) was monomerized with incubation in hexafluoroisopropanol
T3 sequence (P05067 672-713 limits assumed): as above
Experimental: To assess the ability of these reagents to capture protein aggregates, the previously described Misfolded Protein Assay or MPA (Lau et al., 2007, PNAS, 104: 11551) was used (FIG. 3). In this assay, the capture reagent of interest is attached to beads which are incubated with a sample of interest containing a mixture of normal monomeric and aggregated proteins to allow for capture and then washed to remove unbound material. After this enrichment step, an elution buffer is used to dissociate the captured material from the beads as well as to denature any aggregates. The eluted material is then applied to a sandwich ELISA that is specific for the protein of interest. Strong aggregate-binding reagents acting as effective capture reagents show a high signal from the sample containing a mixture of monomers and aggregates, but not from the control sample, which contains only physiologic levels of monomeric protein.
Beads displaying carboxylic acids were treated with EDC and BMPH to create maleimide-displaying beads, to which thiolated peptides (or other thiolated organic molecules) were added through a Michael addition reaction. Dynal M270 magnetized beads (30 mg/mL bead) displaying carboxylic acids were vortexed and placed into a 15 ml falcon tube. The tube was placed into a magnet, and the supernatant removed. The beads were washed 2 times with 0.1 M MES buffer, pH 5, and then the washing buffer was removed. The coupling solution (33 mM BMPH, 130 mM EDC in MES buffer) was added, and the tube was rocked for 30 minutes at room temperature. After washing in 1×MES, 1× Tris, pH 7.5, the beads were quenched with Tris buffer (50 mM Tris buffer, pH 7.5) for 15 minutes. The beads were then washed 2 times in phosphate buffer and added to 5 mM thiolated ligand in degassed phosphate. The beads were rotated for 21 hours, then washed in 0.1 M phosphate buffer, pH 7, 1×PBS, and stored.
To prepare the globulomer, beta amyloid (1-42) was monomerized with incubation in hexafluoroisopropanol. The hexafluoroisopropanol was removed by vacuum centrifugation. DMSO, PBS, and 2% SDS were then added to the sample. The sample was vortexed and sonicated and then incubated at 37° C. After 6 hours, the sample was diluted with water, vortexed, and incubated at 37° C. for an additional 19 hours. The sample was ultracentrifuged at 135000×g for 1 hour at 4° C., and the supernatant retained. The globulomers were spiked into CSF for the assay.
Aliquots of beads conjugated to various reagents were added to wells of a 96-well plate. Globulomer-spiked CSF in a Tris buffer was added to each well, and the plates were incubated for 1 hour at 37° C. with shaking. For the negative control, normal CSF was used, which is considered to contain only monomers of beta amyloid. The beads were washed with TBST wash buffer, and bound materials were eluted with a denaturing solution (typically 0.1-0.15 N NaOH). A reconditioning buffer was added to the eluate prior to beta amyloid detection via a beta amyloid (1-42) specific sandwich ELISA.
In order to determine the amount of ligand loading, amine quanitation was used. Aliquots of beads were placed in a magnet, and the supernatant removed. 80% phenol in ethanol, 0.2 mM KCN in pyridine/water, and 6% ninhydrin in ethanol was added to each tube. The aliquots were vortexed and heated for 7 minutes at 100° C. After cooling to room temperature, 60% ethanol was added. The tubes were placed in a magnet, and the absorbance of the supernatant at 570 nm was determined. The loading of the beads was determined according to Beer's law, using the extinction coefficient of 15000 M-1 cm-1.
Beads (3 ul or 15 ul) were added to samples containing 0.5 ng/mL globulomer spiked into CSF. […] For PSR1, this limit was ˜5 nmol ligand/mg bead for binding preferentially to globulomer. […]

[2] = 3 ul of beads and 1 ng/mL of aggregate

With Nab-Nab-Nab-Nbn-Nab-Nbn [PSR1] the “distinguishing control and AD brain homogenates, Tau detected” value (tau aggregates) was “clearly distinguished between control and either vCJD or AD samples”, the “total Tau signal, AD vs normal brain homogenate” value (tau aggregates) was “higher signals in the AD samples relative to the normal brain homogenates; also recorded: highest signal” and the “capture of ASPD” value (Aβ42 ASPD; [2]) was 1096. The LoD (Aβ42 ASPD) was about 20 amol, the LoD (Aβ42 ASPD; LoD = 2× over background) was ~200 pg/mL and 200 pg/mL and the “capture of Globulomer” value (Aβ42 Globulomer; [2]) was 1267. The LoD (Aβ42 Globulomer) was about 140 amol, the LoD (Aβ42 Globulomer; LoD = 2× over background) was ~75 pg/mL and 75 pg/mL and the “minimum density required for oligomer capture” value (“minimum density required” for short) ([1]; 0.5 ng/mL globulomer in CSF, assuming all amines protonated at pH 7.4) was “roughly 6000 nmol positive charges/m^2”. The “minimum density required” value ([1]; 0.5 ng/mL globulomer in CSF, from 2-5 m^2 surface area per gram bead) was “approximately 1500 nmol ligand/m^2”, the “minimum density required” value ([1]; 0.5 ng/mL globulomer spiked into CSF, 3 ul or 15 ul beads) was about 5 nmol ligand/mg bead and the “capture of oligomers (relative light units from the Abeta ELISA)” value ([1]; globulomer-spiked CSF vs normal CSF, reagent on Dynal M270 beads) was “capable of enriching oligomers”. The “sensitivity and specificity for globulomers” value ([1]; native vs denatured globulomer in CSF, directly conjugated beads vs streptavidin beads with biotin-PSR1) was “higher sensitivity and specificity for globulomers”.
